The source of these data is patent publication US10544129B2, “Crystalline forms of AP26113, and preparation method thereof” (Crystal Pharmatech Co., Ltd., priority 2016, dated 2020).

Structures are written as SMILES. In brackets after ≈: the same amount, converted by molar mass. Like-named read-outs stand apart in the source and are kept apart here.

Common to all, as to format: physicochemical
Data set [1] can be described thus: Dissolution study (intrinsic dissolution rate, rotating disk). The following applies: for Cumulative dissolution: phosphate buffer pH 6.8, 37° C.; for intrinsic dissolution rate: linear fit of cumulative dissolution with time, phosphate buffer pH 6.8. The protocol:
The dissolution data were collected on an Agilent 708-DS.
100 mg of Form CS2 and Form A were added into the die of intrinsic dissolution rate (IDR) tooling, and then compressed at 12 KN for 1 min.
Dissolution medium: phosphate buffer (pH 6.8)
Dissolution method: rotating disk
Revolving speed: 1000 rpm
Medium temperature: 37° C.

A short description of data set [2]: Solubility study in H2O (saturated solutions, HPLC). The protocol: Samples of Form CS1 of this present disclosure and Form A were suspended in H2O to get saturated solutions. After equilibrated for 1 h and 4 hours, the concentrations of the saturated solutions were measured by high performance liquid chromatography (HPLC).
The nature of data set [3]: Particle size study. The protocol: Particle size distribution of Forms CS1 and Form CS2 of the present disclosure and Form A of the prior art are tested. The average particle size of Form A is 12.58 μm, which is too small to be isolated effectively in the crystallization process. The Average particle sizes of Forms CS1 and Form CS2 are 175.0 μm and 151.9 μm, which are much larger than that of Form A. Compared with Form A, Form CS1 and Form CS2 with large particle size have less electrostatic attraction and can be separated more easily during the crystallization process. Moreover, the mixing non uniformity in the preparation process can be avoided, the quality of the drug is more controllable. At the same time, the crystal growth of the large particle size crystals is more perfect, and the adsorption of the solvent or the impurity on the crystals can be avoided, which is more helpful for purification.

A short description of data set [4]: Solubility study in FaSSIF and SGF (saturated solutions, HPLC). Particulars: for solubility at 1 h / solubility at 4 h: thermodynamic from solid. The method, then:
Samples of Form CS2 of the present disclosure and Form A were suspended in FaSSIF (Fasted state simulated intestinal fluids) and SGF (Simulated gastric fluids) to get saturated solutions. The concentrations of the saturated solutions were measured by high performance liquid chromatography (HPLC) at fixed time points.

Data set [5] is described as follows: Stability study at 25° C./60% RH (XRPD, purity). The following applies: one month and three months. The method, then: Approximately 10 mg of Form CS2 were stored in a temperature and humidity controlled chamber at 25° C./60% RH, and samples were taken for XRPD at the beginning and after stored for one month and three months. The results are as depicted in FIG. 13.

With `COc1cc(N2CCC(N3CCN(C)CC3)CC2)ccc1Nc1ncc(Cl)c(Nc2ccccc2P(C)(C)=O)n1` [Form A, AP26113], the Cumulative dissolution in data set [1] (10 min) is listed as 0.6 mg; in data set [1] (15 min) it was 0.9 mg; in data set [1] (20 min) it was 1.1 mg; in data set [1] (25 min), 1.4 mg; in data set [1] (30 min) it was 1.6 mg. In data set [1], the intrinsic dissolution rate is listed as 0.052 mg/min. The results for the “Solubility H2O” value in data set [2] (1 h) and in data set [2] (4 h) were 61 µg/mL (≈ 0.104 mM) and 67 µg/mL (≈ 0.115 mM), respectively. Besides, the “solubility in water (in words)” value in data set [2] (water) was “poor”. Moreover, in data set [3], the average particle size came out at 12.58 μm. In addition, the “Solubility FaSSIF” value in data set [4] (FaSSIF, 1 h) is 6900 µg/mL (≈ 11.8 mM); in data set [4] (FaSSIF, 4 h) it was 7200 µg/mL (≈ 12.3 mM). Besides, the “solubility in SGF (in words)” value in data set [4] (SGF) was “good solubility”. The “Solubility SGF” value in data set [4] (SGF, 1 h) amounted to 10900 µg/mL (≈ 18.7 mM); in data set [4] (SGF, 4 h), 10900 µg/mL (≈ 18.7 mM).
What is called solubility is the concentration that dissolves in the medium under given conditions. As to `COc1cc(N2CCC(N3CCN(C)CC3)CC2)ccc1Nc1ncc(Cl)c(Nc2ccccc2P(C)(C)=O)n1` [Form CS2, AP26113], the Cumulative dissolution is recorded as 6.4 mg in data set [1] (10 min); 8.0 mg in data set [1] (15 min); 9.4 mg in data set [1] (20 min); 10.7 mg in data set [1] (25 min); 11.8 mg in data set [1] (30 min). Further, the intrinsic dissolution rate in data set [1] was found to be 0.268 mg/min. Besides, the “dissolution rate, times higher than that of Form A” value in data set [1] (relative to Form A) was determined as 5 times. In addition, the purity after storage entry in data set [5] (beginning) is reported as “above 99%”. For the same molecule, in data set [5], the “crystalline form after storage (XRPD)” value is reported as “doesn't change”. Moreover, the average particle size in data set [3] is on record as 151.9 μm. Further, in data set [4] (FaSSIF, one hour, relative to Form A), the “solubility higher than that of Form A” value is 43%. The solubility at 1 h was 9900 µg/mL (≈ 16.9 mM) in data set [4] (FaSSIF, FaSSIF, 1 h, read-out: Solubility FaSSIF) and 11200 µg/mL (≈ 19.2 mM) in data set [4] (SGF, simulated gastric fluid, SGF, 1 h, read-out: Solubility SGF). Besides, the solubility at 4 h in data set [4] (FaSSIF, FaSSIF, 4 h, read-out: Solubility FaSSIF) was 9600 µg/mL (≈ 16.4 mM); in data set [4] (SGF, simulated gastric fluid, SGF, 4 h, read-out: Solubility SGF), 12100 µg/mL (≈ 20.7 mM). Besides, the “solubility in SGF (in words)” value in data set [4] (SGF) was “good solubility”.
Turning to `COc1cc(N2CCC(N3CCN(C)CC3)CC2)ccc1Nc1ncc(Cl)c(Nc2ccccc2P(C)(C)=O)n1` [Form CS1, AP26113], the figures for the “Solubility H2O” value in data set [2] (1 h) and in data set [2] (4 h) were 1000 µg/mL (≈ 1.71 mM) and 610 µg/mL (≈ 1.04 mM), respectively. Further, the “solubility in water, times higher than that of Form A” value in data set [2] (water, relative to Form A) was 16 times. The same molecule gave an average particle size in data set [3] of 175.0 μm.
